Reference: article PMC9081605, “A High-Throughput Toxicity Screen of 42 Per- and Polyfluoroalkyl Substances (PFAS) and Functional Assessment of Migration and Gene Expression in Human Placental Trophoblast Cells” (Frontiers in Toxicology, 2022)
“Also recorded” adds a separate entry of the source.

Columns and labels:
Format in all cases: cell-based, human
[1] = test system: JEG-3 cells; experiment: Mitochondrial membrane potential, JC-10 assay (HTTS); conditions: for minimal effective concentration: read-out: MMP ↓, lowest concentration at which the mean response value exceeded the mean control value ± 2*SD (rough binning); for MMP relative to vehicle control (rough binning): after 24 h, in at least one concentration; for MMP ↓, lowest concentration at which the mean response value exceeded the mean control value ± 2*SD (rough binning): 24 h, decrease
Description: (§1) JEG-3 human choriocarcinoma trophoblastic cells (American Type Culture Collection, VA, United States) were maintained in sterile-filtered Minimum Essential Media (MEM) supplemented with L-glutamine and phenol red (Thermo Fisher Scientific, MA, United States), 10% (v/v) heat-inactivated BenchMark Fetal Bovine Serum (Gemini Bio, CA, United States), 1% (v/v) sodium pyruvate (Thermo Fisher Scientific, MA, United States), and 1% (v/v) penicillin streptomycin (Sigma Aldrich, MO, United States). Cells were maintained in an incubator at 37°C with 5% CO2. JEG-3 cells were cultured in 10 cm tissue culture plates and cell passage numbers were recorded.
(§2) A total of 42 perfluoroalkyl substances (PFAS) were evaluated (Supplementary Table S1 contains source and purity). PFAS stock solutions were maintained in 100% methanol as previous work has shown certain PFAS degrade when stored in dimethyl sulfoxide (DMSO; [Gaballah et al., 2020]). […] The vehicle control group consisted of 97.5% media + 2.5% methanol to match the concentration of methanol in the media at the highest PFAS concentration tested (500 µM). Menadione (50–500 µM) was used as a positive control for cytotoxicity assessment. PFAS were de-identified and assigned random numbers to eliminate bias. Chemical exposure plate maps were designed so that all experimental conditions were tested in at least technical duplicates per plate. The outer edges of each plate received media alone and were excluded from all analyses to avoid edge effects. Each plate map included 14 technical replicates of the vehicle control group and 14 technical replicates of media only. Biological replicates were defined as separate 384 well plates tested on separate days using different cell passages. The experimental workflow is depicted in Supplementary Figure S1.
(§3) JEG-3 cells were counted using a Z2 Coulter Particle Counter (Beckman Coulter, CA, United States) and seeded at a density of 2,500 cells per well in black-walled, clear bottom 384 well plates (Corning, #3764) and allowed to adhere overnight. Approximately 24 h later, 384 well plates were imaged using an IncuCyte Zoom live cell imager (Essen BioScience Inc., MI, United States) to obtain baseline cellular confluence measurements prior to chemical dosing (0 h). Media was removed from wells and replaced with fresh media containing chemical treatments (exposure media) using a Viaflo liquid handling device (Integra Biosciences, NH, United States). Within 30 min of exposure media application, plates were again imaged for cellular confluence using the IncuCyte Zoom. Plates were incubated with exposure media for 24 h and then imaged again using the IncuCyte Zoom (24 h).
The JC-10 assay (Enzo Life Sciences, NY, United States) was used to evaluate mitochondrial membrane potential, the main bioenergetic parameter that regulates respiratory rate, ATP synthesis and reactive oxygen species generation. In cells with polarized mitochondrial membranes, the JC-10 dye localizes to the mitochondrial matrix and forms red fluorescent aggregates (540/590 nm). In cells with depolarized mitochondrial membranes, the JC-10 dye localizes in the cytoplasm and converts to a green fluorescent monomer (490/525 nm). Mitochondrial membrane potential was calculated as the ratio of the green and red fluorescence intensities within a well.
At the end of the 24 h exposure period, exposure media was removed from the plate. The plate wells were then washed with 1x phosphate buffered saline (1x PBS). After washing, the JC-10 reagent was suspended in fresh 1x PBS and 20 µl was added to each well at a final concentration of 20 μM (Enzo Life Sciences, NY, United States). The plate was incubated for 1 h at 37°C, and the fluorescence intensities at excitation/emission wavelengths of 490/525 nm and 540/590 nm were measured using a CLARIOstar (BMG Labtech, Offenburg, Germany) plate reader, respectively.
HTTS data were analyzed using a custom data analysis script in R v 1.2.5019 ([R Core Team, 2019]). […]

[2] = test system: JEG-3 cells; experiment: Proliferation, change in confluence 0-24 h (IncuCyte Zoom, HTTS); conditions: for minimal effective concentration: read-out: Prolif ↓, lowest concentration at which the mean response value exceeded the mean control value ± 2*SD (rough binning); for EC50: four-parameter fit, estimates meeting inclusion criteria; for cellular proliferation relative to vehicle control (rough binning): after 24 h, in at least one concentration
Description: as §1, §2, §3
Plate well bottom images were evaluated using automated cell masking. The automated cell masking program was developed using IncuCyte Zoom base software. Cell masking parameters were defined using a training set of JEG-3 cell images obtained prior to conducting the experiments and following IncuCyte Zoom software recommendations. Briefly, the training images were obtained from cell culture plates with varying levels of JEG-3 cellular confluence (ranging from ∼15% confluent to ∼95% confluent). Parameters for the automated cell masking were first manually set by an experimenter for 3-6 images of low (∼15–30%), medium (∼30–70%), and high confluence (∼70% or greater). The training images were then evaluated by the automated masking program and manually checked to ensure the parameters were sufficiently strict to ignore background (e.g., blank space on the plate well bottom) but adequately sensitive to detect cell borders. The masking program was then implemented on the experimental plates to obtain a baseline cellular confluence measurement at 0 h and a second confluence measurement at 24 h. […]

[3] = test system: JEG-3 cells; experiment: CellTiter-Glo luminescent cell viability assay (HTTS); conditions: for Viability ↓, lowest concentration at which the mean response value exceeded the mean control value ± 2*SD (rough binning) / Viability ↑, lowest concentration at which the mean response value exceeded the mean control value ± 2*SD (rough binning): 24 h; for Viability ↓, lowest concentration at which the mean response value exceeded the mean control value ± 2*SD (rough binning): decrease; for cell viability relative to vehicle control (rough binning): after 24 h, in at least one concentration; for Viability ↑, lowest concentration at which the mean response value exceeded the mean control value ± 2*SD (rough binning): increase
Description: as §1, §2, §3
In the same plate evaluated for mitochondrial membrane potential, cell viability measures were duplexed using the CellTiter-Glo (CTG) Luminescent Cell Viability Assay (Promega, WI, United States). CTG reagent was added to each well at a volume of 20 µl. The plate was left at room temperature to incubate for 5 min and then 20 µl from each well was transferred to a low-volume, round-bottom, white 384 well plate (Corning, NY, United States). The CTG reagent lyses cellular and mitochondrial membranes and binds to adenosine triphosphate (ATP) released by cells, which produces a luminescence signal. The intensity of the luminescence was considered a proxy measure for the number of live cells in a well. The luminescence intensities were measured using the CLARIOstar plate reader.
HTTS data were analyzed using a custom data analysis script in R v 1.2.5019 ([R Core Team, 2019]). Briefly, raw data points corresponding to the confluence measurements at 0 and 24 h, the fluorescence intensities corresponding to MMP, and the relative luminescence units (RLU) corresponding to cell viability were imported directly from Microsoft Excel into the R programming environment, RStudio. Separate plates run on separate days using different JEG-3 passages were considered as biologic replicates. […]

[4] = Homo sapiens, JEG-3, 24 h, read-out: Proliferation EC50 ± SD, JEG-3 cells, 24 h exposure
[5] = Homo sapiens, JEG-3, 24 h, read-out: Viability EC50 ± SD, JEG-3 cells, 24 h exposure, four-parameter fit, estimates meeting inclusion criteria
[6] = Homo sapiens, JEG-3, 24 h, read-out: MMP EC50 ± SD, JEG-3 cells, 24 h exposure, four-parameter fit, estimates meeting inclusion criteria
[7] = read-out: MMP EC50 ± SD, JEG-3 cells, 24 h exposure, four-parameter fit, estimates meeting inclusion criteria
[8] = JEG-3 cells, 24 h exposure, read-out: Proliferation EC50 ± SD
[9] = JEG-3 cells, 24 h exposure, four-parameter fit, estimates meeting inclusion criteria, read-out: Viability EC50 ± SD
[10] = JEG-3 cells, raw model output including fits that did not meet inclusion criteria, read-out: MMP EC50 ± SD (raw values)

Compound	minimal effective concentration ([1]; Homo sapiens, JEG-3, 24 h) [µM]	MMP relative to vehicle control (rough binning) [1]	minimal effective concentration ([2]; Homo sapiens, JEG-3, 24 h) [µM]	EC50 [2, 4] [µM]	cellular proliferation relative to vehicle control (rough binning) [2]	EC50 [3, 5] [µM]	Viability ↓, lowest concentration at which the mean response value exceeded the mean control value ± 2*SD (rough binning) ([3]; JEG-3 cells) [µM]	cell viability relative to vehicle control (rough binning) [3]	EC50 [1, 6] [µM]	EC50 [1, 7] [µM]	Viability ↑, lowest concentration at which the mean response value exceeded the mean control value ± 2*SD (rough binning) ([3]; JEG-3 cells) [µM]	MMP ↓, lowest concentration at which the mean response value exceeded the mean control value ± 2*SD (rough binning) ([1]; JEG-3 cells) [µM]	EC50 [2, 8] [µM]	EC50 [3, 9] [µM]	EC50 [1, 10] [µM]	EC50 ([3]; Homo sapiens, JEG-3, 24 h, read-out: viability EC50 ± SE, JEG-3 cells, 24 h) [µM]	Prolif ↓, lowest concentration at which the mean response value exceeded the mean control value ± 2*SD (rough binning) ([2]; JEG-3 cells, 24 h, decrease) [µM]	Prolif ↑, lowest concentration at which the mean response value exceeded the mean control value ± 2*SD (rough binning) ([2]; JEG-3 cells, 24 h, increase) [µM]	EC50 ([3]; JEG-3 cells, raw model output including fits that did not meet inclusion criteria, read-out: Viability EC50 ± SD (raw values)) [µM]	EC50 ([1]; Homo sapiens, JEG-3, 24 h, read-out: MMP EC50 ± SE, JEG-3 cells, 24 h) [µM]
O=C(O)C(F)(F)OC(F)(F)C(F)(F)OC(F)(F)C(F)(F)OC(F)(F)C(F)(F)C(F)(F)C(F)(F)F [Perfluoro-3,6,9-trioxatridecanoic acid]	50	reduced MMP	400	332 ± 34.1	reduced cellular proliferation	195 ± 54.6	300	reduced cell viability												
O=C(O)C(F)(F)OC(F)(F)C(F)(F)OC(F)(F)C(F)(F)C(F)(F)C(F)(F)F [Perfluoro-3,6-dioxadecanoic acid]	400	reduced MMP	300	283 ± 25.7	reduced cellular proliferation		400	reduced cell viability	350 ± 16.1											
O=C(O)C(F)(F)OC(F)(F)C(F)(F)OC(F)(F)F [Perfluoro-3,6-dioxaheptanoic acid]	400	reduced MMP	400	351 ± 11.8	reduced cellular proliferation	326 ± 85.7		increased cell viability	368	368 ± 22.6	200									
O=C(O)C(F)(F)C(F)(F)OC(F)(F)F [Perfluoro-3-methoxypropanoic acid]				204 ± 111		304 ± 28.2			93.1 ± 132											
O=S(=O)(O)C(F)(F)C(F)(F)C(F)(F)C(F)(F)F [Perfluorobutanesulfonic acid]		reduced MMP						increased cell viability			50	50	223 ± 76.7	330 ± 35						
O=C(O)C(F)(F)C(F)(F)C(F)(F)F [Perfluorobutanoic acid]		reduced MMP						increased cell viability			50	50	209 ± 360	226 ± 116	52					
O=C(O)C(F)(F)C(F)(F)C(F)(F)C(F)(F)C(F)(F)C(F)(F)C(F)(F)C(F)(F)C(F)(F)F [Perfluorodecanoic acid]	50	reduced MMP	250	234 ± 22.8	reduced cellular proliferation	181 ± 25.6	200	reduced cell viability; also recorded: increased cell viability	236 ± 160		50					181 ± 26				
O=S(=O)(O)C(F)(F)C(F)(F)C(F)(F)C(F)(F)C(F)(F)C(F)(F)C(F)(F)F [Perfluoroheptanesulfonic acid]													296 ± 201		874 ± 1750		232.5	23.25	1980 ± 2480	
O=S(=O)(O)C(F)(F)C(F)(F)C(F)(F)C(F)(F)C(F)(F)C(F)(F)F [Perfluorohexanesulfonic acid]			350	252 ± 21.7	reduced cellular proliferation	289 ± 29.6		increased cell viability	86.2	86.6 ± 71.5	50									86.2 ± 72.3
